From PMC6979384, “Characterization of the plant homeodomain (PHD) reader family for their histone tail interactions” (Epigenetics & Chromatin, 2020)

What was measured:
Test in all cases: Histone peptide microarray
Assay type in all cases: binding, human
KDM5B (1) = details: GST-tagged KDM5B (1)
Outline: (§1)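 GST-tagged PHD readers, 0.5 μM, probed on a microarray of 293 synthetic histone peptides carrying single or combinatorial PTMs (optimized Petell protocol). Signals are averaged over 4 replicates and expressed as relative binding.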

ING1 = details: GST-tagged ING1
Outline: as §1

MLL5 = details: GST-tagged MLL5
Outline: as §1

KDM5A (3) = details: GST-tagged KDM5A (3)
Outline: as §1

KDM5B (3) = details: GST-tagged KDM5B (3)
Outline: as §1

ING3 = details: GST-tagged ING3
Outline: as §1

KDM7A = details: GST-tagged KDM7A
Outline: as §1

ING5 = details: GST-tagged ING5
Outline: as §1

SP140L = details: GST-tagged SP140L
Outline: as §1

PHF21A = details: GST-tagged PHF21A
Outline: as §1

PHF23 = details: GST-tagged PHF23
Outline: as §1

PHF13 = details: GST-tagged PHF13
Outline: as §1

TAF3 = details: GST-tagged TAF3
Outline: as §1

PHF8 = details: GST-tagged PHF8
Outline: as §1

RAG2 = details: GST-tagged RAG2
Outline: as §1

BAZ2B = details: GST-tagged BAZ2B
Outline: as §1

ING4 = details: GST-tagged ING4
Outline: as §1

DIDO1 = details: GST-tagged DIDO1
Outline: as §1

TRIM66 (PB) = details: GST-tagged TRIM66 (PB = PHD + Bromodomain)
Outline: as §1

DPF2 (PPC2W2) = details: GST-tagged DPF2 (PPC2W2 = Dual PHD + C2W2-type Zn-finger)
Outline: as §1

BPTF (PB) = details: GST-tagged BPTF (PB = PHD + Bromodomain)
Outline: as §1

CHD4 (PPCC) = details: GST-tagged CHD4 (PPCC = Dual PHD + Dual Chromodomain)
Outline: as §1

CHD5 (PPCC) = details: GST-tagged CHD5 (PPCC = Dual PHD + Dual Chromodomain)
Outline: as §1

PHRF1 (RP) = details: GST-tagged PHRF1 (RP)
Outline: as §1

AIRE (PP) = details: GST-tagged AIRE (PP)
Outline: as §1

PHF2 = details: GST-tagged PHF2
Outline: as §1

KDM5A (1) = details: GST-tagged KDM5A (1)
Outline: as §1

MORC3 (CW) = details: GST-tagged MORC3 (CW = CW-type Zn-finger)
Outline: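 Binding read as mean relative signal from 4 replicates; microarray held 293 synthetic histone peptides with single or combinatorial PTMs. Each GST-tagged PHD reader was applied at 0.5 μM using the optimized Petell protocol.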

ING2 = details: GST-tagged ING2
Outline: as §1

KDM4C (TTP) = details: GST-tagged KDM4C (TTP = Tandem Tudor domain + PHD)
Outline: as §1

CHD5 (PCC) = details: GST-tagged CHD5 (PCC = PHD + Dual Chromodomain)
Outline: as §1

[1] = histone peptide array, arrays performed twice, n of 4
[2] = sheet Array Heatmap, each array performed twice, total n = 4

H4 (11-27): H4 11-27
Array Heatmap signal, KDM5B (1) (KDM5B (1); [1]): 0.652
Array Heatmap signal, ING1 (ING1; [1]): 0.5543
Array Heatmap signal, MLL5 (MLL5; [1]): 0.5751
Array Heatmap signal, KDM5A (3) (KDM5A (3); [1]): 0.4231
Array Heatmap signal, KDM5B (3) (KDM5B (3); [1]): 0.4786
Array Heatmap signal, ING3 (ING3; [1]): 0.5001
Array Heatmap signal, KDM7A (KDM7A; [1]): 0.3743
Array Heatmap signal, ING5 (ING5; [1]): 0.3644
Array Heatmap signal, SP140L (SP140L; [1]): 0.3427
Array Heatmap signal, PHF21A (PHF21A; [1]): 0.4899
Array Heatmap signal, PHF23 (PHF23; [1]): 0.5647
Array Heatmap signal, PHF13 (PHF13; [1]): 0.6301
Array Heatmap signal, TAF3 (TAF3; [1]): 0.2827
Array Heatmap signal, PHF8 (PHF8; [1]): 0.3468
Array Heatmap signal, RAG2 (RAG2; [1]): 0.2544
Array Heatmap signal, BAZ2B (BAZ2B; [1]): 0.4866
Array Heatmap signal, ING4 (ING4; [1]): 0.4682
Array Heatmap signal, DIDO1 (DIDO1; [1]): 0.7393
Array Heatmap signal, TRIM66 (PB) (TRIM66 (PB); [1]): 0.6367
Array Heatmap signal, DPF2 (PPC2W2) (DPF2 (PPC2W2); [1]): 0.705
Array Heatmap signal, BPTF (PB) (BPTF (PB); [1]): 0.3518
Array Heatmap signal, CHD4 (PPCC) (CHD4 (PPCC); [1]): 0.6032
Array Heatmap signal, CHD5 (PPCC) (CHD5 (PPCC); [1]): 0.5646
Array Heatmap signal, PHRF1 (RP) (PHRF1 (RP); [1]): 0.4565
Array Heatmap signal, AIRE (PP) (AIRE (PP); [1]): 0.4611
Array Heatmap signal, PHF2 (PHF2; [1]): 0.5451
Array Heatmap signal, KDM5A (1) (KDM5A (1); [1]): 0.4724
Array Heatmap signal, MORC3 (CW) (MORC3 (CW); [1]): 0.3632
Array Heatmap signal, ING2 (ING2; [1]): 0.6025
Array Heatmap signal, KDM4C (TTP) (KDM4C (TTP); [1]): 0.4895
Array Heatmap signal, CHD5 (PCC) (CHD5 (PCC); [1]): 0.8335

H3T3p + K4me3: H3 1-20
Array Heatmap signal (histone peptide microarray) (KDM5B (1); [2]): 0.6609
Array Heatmap signal (histone peptide microarray) (ING1; [2]): 0.5588
Array Heatmap signal (histone peptide microarray) (MLL5; [2]): 0.5412
Array Heatmap signal (histone peptide microarray) (KDM5A (3); [2]): 0.5826
Array Heatmap signal (histone peptide microarray) (KDM5B (3); [2]): 0.5163
Array Heatmap signal (histone peptide microarray) (ING3; [2]): 0.4764
Array Heatmap signal (histone peptide microarray) (KDM7A; [2]): 0.3295
Array Heatmap signal (histone peptide microarray) (ING5; [2]): 0.3533
Array Heatmap signal (histone peptide microarray) (SP140L; [2]): 0.3246
Array Heatmap signal (histone peptide microarray) (PHF21A; [2]): 0.4603
Array Heatmap signal (histone peptide microarray) (PHF23; [2]): 0.5295
Array Heatmap signal (histone peptide microarray) (PHF13; [2]): 0.62
Array Heatmap signal (histone peptide microarray) (TAF3; [2]): 0.2953
Array Heatmap signal (histone peptide microarray) (PHF8; [2]): 0.3669
Array Heatmap signal (histone peptide microarray) (RAG2; [2]): 0.2672
Array Heatmap signal (histone peptide microarray) (BAZ2B; [2]): 0.4608
Array Heatmap signal (histone peptide microarray) (ING4; [2]): 0.4716
Array Heatmap signal (histone peptide microarray) (DIDO1; [2]): 0.6916
Array Heatmap signal (histone peptide microarray) (TRIM66 (PB); [2]): 0.5989
Array Heatmap signal (histone peptide microarray) (DPF2 (PPC2W2); [2]): 0.6866
Array Heatmap signal (histone peptide microarray) (BPTF (PB); [2]): 0.35
Array Heatmap signal (histone peptide microarray) (CHD4 (PPCC); [2]): 0.624
Array Heatmap signal (histone peptide microarray) (CHD5 (PPCC); [2]): 0.5481
Array Heatmap signal (histone peptide microarray) (PHRF1 (RP); [2]): 0.4433
Array Heatmap signal (histone peptide microarray) (AIRE (PP); [2]): 0.3968
Array Heatmap signal (histone peptide microarray) (PHF2; [2]): 0.5905
Array Heatmap signal (histone peptide microarray) (KDM5A (1); [2]): 0.462
Array Heatmap signal (histone peptide microarray) (MORC3 (CW); [2]): 0.5559
Array Heatmap signal (histone peptide microarray) (ING2; [2]): 0.6632
Array Heatmap signal (histone peptide microarray) (KDM4C (TTP); [2]): 0.4706
Array Heatmap signal (histone peptide microarray) (CHD5 (PCC); [2]): 0.7821
